Source: patent publication US20160324770A1, “INTRATHECAL ADMINISTRATION, PREFERABLY INTRAVENTRICULAR, OF MTOR INHIBITORS FOR THE THERAPY OF SOME NEURODEGENERATIVE, NEUROINFLAMMATORY AND NEURO-ONCOLOGIC DISEASES” (priority 2012, published 2016)
Where two headings read alike, the source gives them in different places.

Legend:
[1] = Blood and brain concentrations and metabolites (LC-MS) after intraventricular (intracerebral) administration by osmotic pump; assay type: in vivo, mice
Source text: Intraventricular infusion: Under general anaesthesia obtained with Ketamine/Xylazine, Alzet osmotic pumps (http://www.alzet.com/products/guide_to_use/pump_selection.ht ml) were implanted subcutaneously on the back; a catheter leading from the pump reached the cranial vault, where it was connected to a connector (Brain Kit 3, Alzet) stereotaxically implanted in the cranium until reaching the lateral ventricle. These pumps are capable of infusing their content at a constant speed for 1-4 weeks.
A quantitative analysis of everolimus in blood and tissue samples was performed with the isotopic dilution method using the LC-MS technique. The chromatographic system was the following: Agilent 1290 Infinity HPLC equipped with a binary pump and HiP Auto Sampler model G4226A. The injection volume was 2 μL, the analytical column used was a Phenomenex Kinetics PFP UHPLC column (Phenomenex, Milan, Italy) […], 1.7 μm, 100 Å, temperature controlled at 55° C. A gradient elution was performed using as solvent A: water with 5 mM ammonium formiate, solvent B: methanol with 0.1% formic acid. The elution profile was the following: solvent A 30%/solvent B 70% for 3 minutes, solvent A 1%/solvent B 99% from 3 to 6 minutes, at a flow velocity of 0.25 mL/min. This setup enabled an elution time of 2.5 minutes. Every injection was preceded by a cycle of washing the injector system with methanol.
Mass spectrometry was conducted using a Q-TOF MS detector model G6540A (Agilent, Germany) equipped with a Dual AJS ESI (electrospray ionization interface) system. The instrument parameters were the following: sheath gas flow: […], sheath gas temperature: 300° C., gas flow: 6 L/min, gas temperature: 300° C., nebulizer pressure: 35 psi, ion spray voltage: 5500 V.
Both everolimus and the isotopic internal standard were detected as ammonium adducts in the positive ion mode.
Everolimus was extracted from whole blood in 1 mL of a methanol solution containing 10% ammonium acetate in order to enable precipitation of most of the serum protein.
The blood samples were freeze-dried and subsequently extracted. The extraction process was carried out in a sonication bath for approx. 10 minutes to ensure complete haemolysis and release of the drug from the cell material.
The process of extraction from brain samples, divided into right and left hemispheres, was similar to the one for whole blood. The tissue samples were weighed and subsequently freeze-dried. After freeze-drying the samples were finely chopped to facilitate subsequent extraction. 1 mL of the methanol solution was then added to 1% v/v of ammonium formiate with 200 ng/mL of internal standard. The samples were then subjected to 10 minutes of sonication and vortexed to ensure complete extraction of the drug. Then followed centrifugation (10 minutes, 4000 rpm, 10° C.) and the supernatant was separated from the pellet. As previously described, the solutions were purified by means of HybridSPE®-Phospholipid solid-phase extraction cartridges with a total volume of 1 ml (Sigma Aldrich, Milan) to eliminate the excess lipid material. The samples were then immediately submitted to LC-MS analysis.
We then decided to look for the maximum tolerable dose by intraventricular administration of everolimus at concentrations 10 times higher than those shown in Table 1: A=25 mg/Kg, B=12.5 mg/Kg, C=[…].
Though they could not be quantified, the presence of metabolites deriving from the transformation of the drug has been noted in the table.

[2] = test system: p70-S6 kinase phosphorylation (measure of mTOR activity); assay: Western blot of p70S6K phosphorylation in brain, liver and spleen (verification of mTOR inhibition); assay type: in vivo, mice
Protocol: The frozen mouse tissues were homogenized in T-PER solution (Pierce) containing a cocktail of protease inhibitors (Sigma-Aldrich) and a cocktail of phosphatase inhibitors (Sigma-Aldrich). The homogenized samples were sonicated 3 times for 15 sec (amplitude of 10 microns) at 4° C. using an MSE soniprep 150 sonicator (Sanyo), and subsequently centrifuged at 4° C. for 30 minutes at 16000 g. The supernatant was recovered and the proteins quantified by means of a Bradford assay using BSA as the standard.
For the Western blot analysis, the proteins were separated by SDS-PAGE under reducing conditions according to the method of Laemmli. Subsequently, the proteins were transferred onto a PVDF membrane (Biorad), which was incubated with the following primary antibodies: anti-phospho-p70S6K (T^389), anti-phospho-p70S6K (S^371), anti-p70S6K (Cell Signaling) and anti-actin (Sigma-Aldrich). After being washed with TBS-Tween (50 mM Tris, pH 7.5, NaCl […] and 0.1% Tween 20), the membrane was incubated with one of the following secondary antibodies: anti-rabbit IgG conjugated to HRP (GE Healthcare) and anti-mouse IgG conjugated to HRP (GE Healthcare). The membrane was developed by means of ECL prime (GE Healthcare).
Verification of mTOR inhibition. We analyzed the actual inhibition of mTOR by WB. mTOR is a kinase with multiple substrates, one of which is p70-S6 kinase. Phosphorylation of the latter is unanimously considered a measure of mTOR activity.

[3] = test system: Subependymal Giant Cell Astrocytomas (SEGAs); conditions: systemic administration, cited from earlier work
[4] = dose A=25 mg/Kg intraventricular, treated 3 days
[5] = dose B=12.5 mg/Kg intraventricular, treated 14 days
[6] = dose C=6.125 mg/Kg intraventricular, treated 14 days

## CO[C@H]1C[C@@H]2CC[C@@H](C)[C@@](O)(O2)C(=O)C(=O)N2CCCC[C@H]2C(=O)O[C@H]([C@H](C)C[C@@H]2CC[C@@H](OCCO)[C@H](OC)C2)CC(=O)[C@H](C)/C=C(\C)[C@@H](O)[C@@H](OC)C(=O)[C@H](C)C[C@H](C)/C=C/C=C/C=C/1C [everolimus]
[1]; dose A, brain field T8 dx
  Metabolites: No metabolites
[1]; dose A, brain field T9 sx
  Metabolites: No metabolites
[1]; [4]
  Brain Conc: 20.4 ng/g
  Conc/250 mg brain, Left hemisphere: 4.9 ± 2.3 /250 mg brain
  Conc/250 mg brain, Right hemisphere: 5.3 ± 2.8 /250 mg brain
[1]; dose B, brain field T5- dx
  Metabolites: No metabolites
[1]; dose B, brain field T6 sx
  Metabolites: No metabolites
[1]; [5]
  Brain Conc: 12 to 16 ng/g
  Conc/250 mg brain, Left hemisphere: 2.91 ± 0.8 /250 mg brain
  Conc/250 mg brain, Right hemisphere: 3.1 ± 1.6 /250 mg brain
[1]; dose C, brain field T1- dx
  Metabolites: No metabolites
[1]; dose C, brain field T1- sx
  Metabolites: No metabolites
[1]; dose C, brain field T2- dx
  Metabolites: No metabolites
[1]; dose C, brain field T2- sx
  Metabolites: No metabolites
[1]; [6]
  Brain Conc: 11.8 ng/g
  Conc/250 mg brain, Left hemisphere: 2.5 ± 0.2 /250 mg brain
  Conc/250 mg brain, Right hemisphere: 3.4 ± 0.7 /250 mg brain
[1]; mouse, whole blood, other: intraventricular infusion by osmotic pump, dose A=25 mg/Kg intraventricular, treated 3 days, read-out: Conc, Blood
  concentration at 3 days: < 1000 ng/g
[1]; mouse, whole blood, other: intraventricular infusion by osmotic pump, dose B=12.5 mg/Kg intraventricular, treated 14 days, read-out: Conc, Blood
  concentration at 14 days: < 1000 ng/g
[1]; mouse, whole blood, other: intraventricular infusion by osmotic pump, dose C=6.125 mg/Kg intraventricular, treated 14 days, read-out: Conc, Blood
  concentration at 14 days: < 1000 ng/g
[2]; intrathecal treatment
  Inhibition of mTOR as shown by WB: local, but not systemic, inhibition of mTOR
[2]; selected dose (12.5 mg/Kg) intraventricular, brain, FIG. 1
  Phosphorylation state of p70-S6 kinase in the brain vs controls: less phosphorylated form than in the controls
[2]; selected dose (12.5 mg/Kg) intraventricular, spleen and liver, FIG. 1
  Phosphorylation state of p70-S6 kinase in the spleen and liver: normally phosphorylated
[3]; 28 patients affected by TS
  Study endpoint (volumetric reduction in SEGAs): reached the endpoint
[3]; many adverse reactions, most of infectious origin
  Severity grade of adverse reactions: 1-3
